This passage reports Denaturation peak temperature results from US20140335038A1, “METHOD OF STRENGTHENING HAIR FIBRES” (priority 2011, published 2014).

A short description of the assay: DSC denaturation peak temperature of treated dark brown hair. Further details: species or system Human. Particulars: Example 4, 5 treatments, pH 5, 32° C. On the procedure: DSC measures the denaturation temperature of the α-helical proteins in the microfibrils of the hair fibre. This temperature is influenced by the cross-link density of the surrounding matrix proteins (Wortmann et al., J. Cosmet. Sci., 53, 219-228 (2002)). A higher denaturation peak temperature indicates greater integrity of the fibre. Damage repair was assessed using DSC. A Mettler Toledo DSC1 analyser was used. The hair was shaved, using clippers, into 1-2 mm lengths. Approximately 5 mg of sample was weighed into a pressure resistant (20 bar), stainless steel, large volume pan (120 μL capacity). 50 μL of water was added and the pan was sealed. The samples were then mixed using a rotary mixer and left overnight to allow the water to equilibrate throughout the sample. […] The helix transition temperature was measured. Each sample was measured three times. Selected 2'' hair switches were bleached once using […] […] 4200 μL Britton-Robinson buffer (62.5 mM pH 5; final concentration 50 mM) 600 μl hydrogen peroxide 3% (SBP- or HRP-treated sample and (+)-catechin/H2O2 treated sample) or 600 μL milliQ water (laccase-treated sample and (+)-catechin treated sample) 600 μL (+)-catechin, 100 mg/mL stock in DMSO The reagents listed above were combined in 15 mL Falcon centrifuge tubes. […] Samples were measured three times.

For `Oc1cc(O)c2c(c1)O[C@H](c1ccc(O)c(O)c1)[C@@H](O)C2` [(+)-Catechin, (+)-catechin], the Denaturation peak temperature is 153.38 +/− 0.43 °C (dark brown hair bleached x1) and 151.16 +/− 0.49 °C (unbleached dark brown hair).
